Results taken from publication PMC8476055, “Synthesis and Biological Activity of Triterpene–Coumarin Conjugates” (Journal of Natural Products, 2021).

What was measured:
[1] = MTT assay, nontumor HPF cells; format: cell-based, human; settings: human, HPF normal lung fibroblast cells; at the compound's IC50 concentration for B16–F10 cancer cells; read-out: percent viability (% viability) of HPF cells
Description: (§1) Only MA conjugates 7 and 10 were selected to compare the growth inhibitory effects in the three nontumor cell lines (HPF, IEC-18, and WRL68) versus the three cancer cell lines (B16–F10, HT29, and Hep G2). Therefore, the cytotoxic effects on B16–F10 murine melanoma cells were compared with those of HPF normal human epithelial lung fibroblasts, with similar tissue. Similarly, the cytotoxic effects of these conjugates on HT29 colon cancer cells and Hep G2 hepatoma cells were compared with those of nontumor cells of the same tissue, such as IEC-18 normal rat ileum cells and WRL68 normal human embryo liver cells, respectively.
(§2) […] ATTC HTB-38), Hep G2 human hepatocyte carcinoma cells (ECACC 85011430), nontumor human epithelial lung fibroblast cells HPF (ScienCell catalog (cat.) no. 3300), nontumor rat ileum cells IEC-18 (ECACC no. 88011801), and nontumor human embryo liver cells (ECACC 89121403) were cultured in DMEM medium supplemented with 2 mM glutamine, 10% heat-inactivated fetal bovine serum (FCS), 10.000 units/mL penicillin, and […]. These cells were incubated at 37 °C in an atmosphere of 5% CO2 and 95% humidity. The culture media were changed every 48 h, and the confluent cultures were separated with a trypsin solution (0.25% EDTA). Subconfluent monolayer cells were used in all experiments. All cell lines used were provided by the cell bank of the University of Granada (Spain).
(§3) The effect of the synthesized compounds on the viability of tumor cells was assessed using an MTT assay, based on the ability of living cells to cleave the tetrazolium ring, thus producing formazan, which absorbs at 570 nm. The MA conjugates (1–12) were assayed against the selected cancer cell lines. For an evaluation of the cytotoxic effects of these compounds, the cells were seeded in 96-well plates at an initial density of 5 × 10^3 B16–F10 cells, 6 × 10^3 HT29 cells, 15 × 10^3 Hep G2 cells, 8 × 10^3 HPF cells, 15 × 10^3 IEC-18 cells, and 11 × 10^3 WRL68 cells, per well. After incubation for 24 h, the cells were treated with the synthesized compounds in triplicate, at different concentrations (0–200 μg/mL), and incubated for 72 h. Thereafter, 100 μL of MTT solution (0.5 mg/mL) were added to each well. After 2 h of incubation, the cells were washed twice with phosphate buffered saline (PBS), and the formazan was resuspended in 100 μL of DMSO. Relative cell viability, with respect to untreated control cells, was measured by absorbance at 550 nm on an ELISA plate reader (Tecan Sunrise MR20-301, TECAN, Austria). […] These experiments were measured and compared to the control after 72 h of treatment.

[2] = system: HPF normal human epithelial lung fibroblasts; assay: MTT assay, nontumor HPF cells; format: cell-based; settings: Homo sapiens, Fibroblast; MTT, untreated control = 100% viability; read-out: IC50, growth inhibition of HPF non-tumor cells
Description: as §1, §2, §3

[3] = MTT assay, statements over the three nontumor cell lines; format: cell-based; settings: human, rat, at the IC50 concentration of the respective cancer cell line; over HPF, IEC-18, WRL68; read-out: cell viability percentage of nontumor cells
Description: as §1
The effect of the synthesized compounds on the viability of tumor cells was assessed using an MTT assay, based on the ability of living cells to cleave the tetrazolium ring, thus producing formazan, which absorbs at 570 nm. The MA conjugates (1–12) were assayed against the selected cancer cell lines. […] Relative cell viability, with respect to untreated control cells, was measured by absorbance at 550 nm on an ELISA plate reader (Tecan Sunrise MR20-301, TECAN, Austria). […] These experiments were measured and compared to the control after 72 h of treatment.

## CC1(C)CC[C@]2(C(=O)NCCCNC(=O)/C=C/c3ccc(O)cc3)CC[C@]3(C)C(=CC[C@@H]4[C@@]5(C)C[C@@H](O)[C@H](O)C(C)(C)[C@@H]5CC[C@]43C)[C@@H]2C1 [Compound 7, 2α,3β-Dihydroxy-N-(3′-((E)-3″-(4‴-hydroxyphenyl)acrylamido)propyl)olean-12-en-28-amide]
[1]
  viability at 72 h: 76.9 ± 2.9%
[2]
  IC50: 38.8 ± 1.3 µM
[3]
  viability at 72 h: 61 to 88%

## CC1(C)CC[C@]2(C(=O)O)CC[C@]3(C)C(=CC[C@@H]4[C@@]5(C)C[C@@H](OC(=O)c6cc7ccccc7oc6=O)[C@H](OC(=O)c6cc7ccccc7oc6=O)C(C)(C)[C@@H]5CC[C@]43C)[C@@H]2C1 [Compound 10]
[1]
  viability at 72 h: 92.9 ± 2.9%
[2]
  IC50: 24.5 ± 1.9 µM
[3]
  viability at 72 h: 90%
